The test system of the assay is Huh7 psiCHECK-miR122 Renilla luciferase reporter, 48 h. As to the kind of experiment: suppression of miR-122 activity, Renilla luciferase sensor – cell-based, Huh7 psiCHECK-miR122, cherry-pick, dose response (AID 652053).

Where “and” joins values, the source holds several entries; their conditions need not be identical. Equal entries are not always repeated.

`CC(=O)Nc1ccc(S(=O)(=O)Nc2cccc(-c3csc(C)n3)c2)cc1`: the AC40 is 8.21 µM.

On to `COc1ccc(NC(=O)c2cc(C)nc3ccccc23)cc1S(=O)(=O)Nc1ccccc1Cl`, for which the AC40 is 2.33 µM. With `O=C(c1ccc(F)cc1)N1C[C@H]2[C@@H](c3ccccc31)[C@@H](CO)N2C(=O)c1ccccc1`, the AC40 is 17.6 µM.

On to `Cc1ccccc1NS(=O)(=O)c1cc(C(=O)N2CCc3ccccc3C2)ccc1C`, for which the AC40 is 20.4 µM. With `C=CCNC(=O)c1ccccc1NC(=O)c1ccc(Cl)c(S(=O)(=O)Nc2cccc(C)c2C)c1`, the AC40 is 0.734 µM. With `C[C@@H]1CN([C@@H](C)CO)C(=O)c2cccc(NS(=O)(=O)c3ccccc3)c2O[C@@H]1CN(C)Cc1ccc(C(=O)Nc2ccccc2N)cc1`, the AC40 is 9.09 µM. As for `CCOc1ccccc1NC(=O)Cn1nnc(C(=O)NCc2cccs2)c1N`, the figure is 5.91 µM; as for `COc1ccc(N(C(=O)c2ccncc2)S(=O)(=O)c2ccc3c4c(cccc24)C(=O)N3C)cc1`, 7.01 µM; as for `O=C(NCc1cccc(Cl)c1)c1ccc(S(=O)(=O)Nc2cccc(C(F)(F)F)c2)cc1`, 22.5 µM. In the case of `O=S(=O)(Nc1ccccc1)c1ccc(Oc2ncc(C(F)(F)F)cc2Cl)cc1`, the AC40 is 21.6 µM. The value for `CCCC(=O)Nc1ccc2c(c1)C(=O)N(C)[C@H]1CC[C@@H](CC(=O)NCc3cccc(F)c3)O[C@H]1CO2` was 0.762 µM; that for `COc1cc(S(=O)(=O)NC2CCCCC2)ccc1Cl` was 2.18 µM. Consider `COc1ccc(C)cc1S(=O)(=O)Nc1cccc(SC)c1`, for which the AC40 is 0.582 µM.

Regarding `Cc1ccc(NS(=O)(=O)c2cc(OCC(N)=O)c(C)cc2Cl)cc1C`, the AC40 was 7.14 µM.

Consider `CC1CCCN(C(=O)Cn2nnc(-c3cccnc3)n2)C1` (stereo not drawn), for which the AC40 was 14.4 µM. With `C[C@@H]1CN([C@@H](C)CO)C(=O)c2cccc(NC(=O)Nc3ccccc3)c2O[C@H]1CN(C)Cc1ccc(C(F)(F)F)cc1`, the AC40 was 2.49 µM. Take `CC(=O)Nc1ccc(S(=O)(=O)Nc2cccc(-c3nc4ccccc4o3)c2)cc1`: the AC40 is 6.93 µM. In the case of `COc1ccc(C)cc1S(=O)(=O)NC1CCCCC1C` (stereo not drawn), the AC40 was 3.25 µM. With `C[C@H](CO)N1C[C@H](C)[C@@H](CN(C)Cc2ccc3c(c2)OCO3)Oc2c(NC(=O)NC3CCCCC3)cccc2C1=O`, the AC40 is 2.53 µM. For the compound `C[C@H]1CN([C@@H](C)CO)C(=O)c2cccc(NC(=O)C3CCOCC3)c2O[C@@H]1CN(C)Cc1ccc2c(c1)OCO2`, the AC40 was 18.2 µM. The value for `CCOC(=O)c1ccc(S(=O)(=O)NC2CCCCCCC2)n1C` was 3.76 µM; that for `CCC(C(=O)Nc1ccc(N2CCOCC2)c(S(=O)(=O)Nc2ccccc2OC)c1)c1ccccc1` (stereo not drawn) was 1.11 µM. The value for `Cc1cc(-c2ccc(C(C)C)c(S(=O)(=O)NCc3ccco3)c2)on1` was 1.22 µM. As for `CCN(CC)C(=O)CC(c1ccc(N(C)C)cc1)c1c(OC)cc(OC)c2c(-c3ccccc3)cc(=O)oc12` (stereo not drawn), the AC40 is 3 µM. In the case of `Cc1ccc(C(=O)Nc2ccc(Cl)cc2C(=O)c2ccccc2)cc1`, the AC40 was 18.6 µM. In the case of `Cc1cc(C)cc(C(O)c2ncc(-c3ccccc3F)[nH]2)c1` (stereo not drawn), the AC40 was 2.5 µM. For the compound `Cc1cc(Cl)c(Cl)cc1S(=O)(=O)NCCCn1ccnc1`, the AC40 is 2.79 µM. Consider `COc1ccccc1NS(=O)(=O)c1cc(NC(=O)Nc2ccccc2)ccc1N1CCCCC1`, for which the AC40 was 1.37 µM.

With `C[C@H](CO)N1C[C@H](C)[C@H](CN(C)Cc2ccc3c(c2)OCO3)Oc2c(NC(=O)C3CCOCC3)cccc2C1=O`, the AC40 is 10.5 µM.

Consider `COc1ccccc1NS(=O)(=O)c1cc(Cl)ccc1OC`, for which the AC40 was 15.9 µM. For the compound `O=C(Nc1sc2c(c1C(=O)O)CCC2)c1ccco1`, the AC40 was 15.1 µM. As for `COc1ccc(S(=O)(=O)N(CC(=O)Nc2cc(C)on2)Cc2ccccc2)cc1`, the figure is 21.3 µM; as for `COc1ccc(F)cc1S(=O)(=O)Nc1ccc2c(c1)OCO2`, 5.47 µM; as for `Cc1ccc(S(=O)(=O)NC2CCCCCC2)cc1`, 2.92 µM. `C[C@H](CO)N1C[C@H](C)[C@H](CN(C)Cc2ccc(Cl)c(Cl)c2)Oc2c(NC(=O)Nc3ccc4c(c3)OCO4)cccc2C1=O`: the AC40 was 4.58 µM. Consider `COc1ccc(OC)c(S(=O)(=O)Nc2ccccc2C(F)(F)F)c1`, for which the AC40 was 9.97 µM. The value for `COc1ccc(F)cc1S(=O)(=O)NC1CCCCCC1` was 5.11 µM; that for `CC(=O)N1CCOc2ccc(S(=O)(=O)Nc3cccc(C)c3)cc21` was 1.64 µM; that for `CC(C)CC(=O)Nc1cccc(-c2nc3ccccc3[nH]2)c1` was 15.6 µM. `C[C@H](CO)N1C[C@H](C)[C@H](CN(C)Cc2ccc(C(=O)Nc3ccccc3N)cc2)Oc2c(cccc2N(C)C)C1=O`: the AC40 was 8.75 µM. Regarding `CCCCNS(=O)(=O)c1ccc2nc(-c3cccnc3)cc(C(=O)NCCOC)c2c1`, the AC40 was 1.18 µM.

For `C[C@H](CO)N1C[C@H](C)[C@H](CN(C)Cc2ccc(C(=O)Nc3ccccc3N)cc2)Oc2ccc(NS(=O)(=O)c3ccc(F)cc3)cc2CC1=O`, the AC40 is 7.93 µM.

Regarding `COc1ccccc1CNS(=O)(=O)c1ccc(-c2cc(C)no2)cc1`, the AC40 was 10.8 µM. For `C[C@@H]1CN([C@H](C)CO)C(=O)Cc2cc(N(C)C)ccc2O[C@@H]1CN(C)Cc1ccc(C(=O)Nc2ccccc2N)cc1`, the AC40 was 11.1 µM. As for `O=C(c1ccccc1F)N1C[C@@H]2[C@H](c3ccccc31)[C@H](CO)N2C(=O)c1ccc(F)cc1`, the figure is 21 µM. Consider `Cc1ccc(S(=O)(=O)Nc2cccc3c2O[C@H](CN(C)Cc2ccc(C(=O)Nc4ccccc4N)cc2)[C@H](C)CN([C@H](C)CO)C3=O)cc1`, for which the AC40 was 10.8 µM. `O=C(c1ccccc1F)N1C[C@H]2[C@@H](c3ccccc31)[C@@H](CO)N2C(=O)c1ccc(F)cc1`: the AC40 is 2.4 µM. Consider `CCCC(=O)NC(=S)Nc1ccc(S(=O)(=O)Nc2ccc(OCC)cc2)cc1`, for which the AC40 was 1.42 µM.

Regarding `Cc1cccc(NS(=O)(=O)c2ccc(C3CCCCC3)cc2)c1`, the AC40 is 13.2 µM. As for `CC(=O)N1CCOc2ccc(S(=O)(=O)NCCc3ccc(Cl)cc3)cc21`, the figure is 5.14 µM; as for `C[C@H](CO)N1C[C@H](C)[C@@H](CN(C)Cc2ccccc2)Oc2c(NC(=O)C3CC3)cccc2C1=O`, 6.79 µM; as for `O=S(=O)(Nc1cccc(-n2cnnn2)c1)c1cc(Br)ccc1Br`, 4.94 µM. For the compound `COc1ccc(-c2ccc3c(c2)CN(C(=S)NCCc2ccccc2)Cc2cnnn2-3)cc1`, the AC40 is 2.2 µM. The value for `COc1ccccc1-c1nnc2sc(-c3ccc(N(C)C)cc3)nn12` was 7.44 µM; that for `c1ccc(CNc2nnnn2-c2ccccc2)cc1` was 17.1 µM; that for `C[C@@H]1CN([C@@H](C)CO)C(=O)c2cccc(NS(=O)(=O)c3ccc(F)cc3)c2O[C@@H]1CN(C)Cc1ccc(C(=O)Nc2ccccc2N)cc1` was 10.4 µM.

For `C[C@H](CO)N1C[C@H](C)[C@H](CN(C)Cc2ccc(C(=O)Nc3ccccc3N)cc2)Oc2c(NC(=O)Nc3ccccc3)cccc2C1=O`, the AC40 is 30.8 µM. For `CC(C)CNS(=O)(=O)c1ccc(OCC(=O)Nc2ccc3c(c2)OCO3)c(Cl)c1`, the AC40 was 8.36 µM. Take `CCOC(=O)Nc1ccc(NS(=O)(=O)c2ccc(C)cc2)cc1`: the AC40 was 8.82 µM.

For `CC(C)CNS(=O)(=O)c1ccc(CCC(=O)NCCC2=CCCCC2)cc1`, the AC40 was 23 µM. The value for `Cc1noc(C)c1NC(=O)Nc1cccc2c1O[C@H](CN(C)Cc1ccccc1)[C@@H](C)CN([C@H](C)CO)C2=O` was 7.74 µM; that for `C[C@@H]1CN([C@@H](C)CO)C(=O)Cc2cc(NC(=O)Nc3ccc4c(c3)OCO4)ccc2O[C@@H]1CN(C)C(=O)Nc1cccc2ccccc12` was 10.9 µM. On to `CCOC(=O)c1cc(S(=O)(=O)Nc2cccc(OC)c2)cn1C`, for which the AC40 was 1.84 µM. Take `COc1ccc(C(C)(C)C)cc1S(=O)(=O)NCC1CCCO1` (stereo not drawn): the AC40 is 0.329 µM.

On to `O=S(=O)(NCCc1ccccc1)c1ccc(F)cc1Br`, for which the AC40 is 1.45 µM. For the compound `Cc1ccc(NS(=O)(=O)c2cc3c(cc2C)NC(=O)CO3)cc1`, the AC40 is 5.89 µM. Take `CN1c2ccc(-c3cccc(F)c3)cc2[C@H]2[C@H](CCN2S(=O)(=O)c2cccc(F)c2)[C@H]1CO`: the AC40 was 6.4 µM. As for `COc1ccc(OC)c(NS(=O)(=O)c2ccc(N3CCCC3=O)cc2)c1`, the AC40 is 14.8 µM.

As for `COc1ccccc1NC(=S)NCC1CCCCC1`, the AC40 is 8.17 µM. The value for `Cc1ccc(C)c(S(=O)(=O)Nc2ccc(O)cc2)c1` was 8.22 µM; that for `FC(F)(F)c1cccc(NC(=S)NCCc2ccccn2)c1` was 2.88 µM; that for `CCOC(=O)N1CCN(S(=O)(=O)c2cc(OCC)ccc2OCC)CC1` was 4.56 µM. Regarding `Fc1cccc(Cn2cc(C(=S)N3CCOCC3)c3ccccc32)c1`, the AC40 is 21 µM.

Regarding `Cc1cc(C)cc(NS(=O)(=O)c2ccc3c(c2)C(C)(C)C(=O)N3C)c1`, the AC40 was 1.21 µM. As for `O=C(c1ccc(F)cc1)N1C[C@H]2[C@@H](c3ccccc31)[C@@H](CO)N2C(=O)c1ccc(F)cc1`, the figure is 1.59 µM; as for `CCCNC(=O)NC[C@@H]1[C@@H](c2ccc(C3=CCCC3)cc2)[C@H](CO)N1C(=O)CC`, 5.75 µM; as for `COc1ccc(S(=O)(=O)Nc2ccc(C(F)(F)F)cc2)cc1OC`, 2.12 µM.

Regarding `Cc1ccc(S(=O)(=O)NCCC2=CCCCC2)cc1`, the AC40 was 5.27 µM. For the compound `COc1cccc(NS(=O)(=O)c2cc(C)ccc2OC)c1`, the AC40 is 1.53 µM.

As for `C[C@H](CO)N1C[C@H](C)[C@@H](CN(C)Cc2ccc(Oc3ccccc3)cc2)Oc2c(NC(=O)c3ccncc3)cccc2C1=O`, the AC40 was 2.42 µM.

On to `COc1ccc(NS(=O)(=O)c2ccc(NC(=S)NC(=O)C(C)C)cc2)cc1`, for which the AC40 is 1.34 µM. The value for `CSc1ccc(S(=O)(=O)NC2CCCCC2)cc1` was 2.87 µM; that for `COc1ccccc1NS(=O)(=O)c1cc(C(=O)NCc2ccco2)ccc1C` was 13.5 µM. Take `C[C@H](CO)N1C[C@H](C)[C@@H](CN(C)Cc2ccc3c(c2)OCO3)Oc2c(NC(=O)C3CC3)cccc2C1=O`: the AC40 is 11.7 µM and 3.61 µM. Consider `CCOC(=O)Nc1nc(-c2ccccc2)c(C(=O)c2ccc(Cl)cc2)s1`, for which the AC40 is 13.8 µM.

Take `COc1ccc(Br)cc1CNC(=O)Nc1cccs1`: the AC40 was 15.5 µM.

Consider `O=S1(=O)c2ccc(Br)cc2N2CCC[C@H]2CN1Cc1ccccc1`, for which the AC40 was 34.9 µM. Regarding `COc1cccc(C(O)c2ncc(-c3cccc(F)c3)[nH]2)c1` (stereo not drawn), the AC40 was 17.3 µM.

The values are drawn from PubChem BioAssay AID652053 (Broad Institute, 2013).
